{"source": "patent US8802597B2", "about": "“Herbicidal pyrimidines” (E I du Pont de Nemours and Company, priority 2003, dated 2014)", "format_in_all_cases": "in vivo", "key": {"[1]": {"tested_on": "Surinam grass (Brachiaria decumbens)", "assay": "Test B pre/postemergence", "in_short": "(§1)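 Under greenhouse conditions, seeded pots and young plants (1- to 4-leaf, 2 to 18 cm) were treated at the same time with test chemicals in a non-phytotoxic solvent mixture containing surfactant. Response was assessed visually after 13 to 15 days, from 0 (no effect) to 100 (complete control).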"}, "[2]": {"tested_on": "barnyardgrass (Echinochloa crus-galli)", "assay": "Test B pre/postemergence", "in_short": "as §1"}, "[3]": {"tested_on": "cocklebur (Xanthium strumarium)", "assay": "Test B pre/postemergence", "in_short": "as §1"}, "corn (Zea mays)": {"tested_on": "corn (Zea mays)", "assay": "Test B pre/postemergence", "in_short": "as §1"}, "[4]": {"tested_on": "crabgrass (Digitaria sanguinalis)", "assay": "Test B pre/postemergence", "in_short": "as §1"}, "[5]": {"tested_on": "giant foxtail (Setaria faberii)", "assay": "Test B pre/postemergence", "in_short": "as §1"}, "[6]": {"tested_on": "lambsquarters (Chenopodium album)", "assay": "Test B pre/postemergence", "in_short": "as §1"}, "[7]": {"tested_on": "morningglory (Ipomoea coccinea)", "assay": "Test B pre/postemergence", "in_short": "as §1"}, "[8]": {"tested_on": "pigweed (Amaranthus retroflexus)", "assay": "Test B pre/postemergence", "in_short": "as §1"}, "[9]": {"tested_on": "velvetleaf (Abutilon theophrasti)", "assay": "Test B pre/postemergence", "in_short": "as §1"}, "[10]": {"tested_on": "wheat (Triticum aestivum)", "assay": "Test B pre/postemergence", "in_short": "as §1"}, "[11]": {"tested_on": "blackgrass (Alopecurus myosuroides)", "assay": "Test B postemergence", "in_short": "as §1"}, "wild oat (Avena fatua)": {"tested_on": "wild oat (Avena fatua)", "assay": "Test B postemergence", "in_short": "as §1"}, "[12]": {"tested_on": "barnyardgrass (Echinochloa crus-galli)", "assay": "Test B flooded paddy test", "conditions": "Flood, 1000 g ai/ha; scale 0 (no effect) to 100 (complete control)", "in_short": "(§2)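 Visual injury scoring (0 = no effect, 100 = complete control) versus controls made 13 to 15 days after treatment in the greenhouse. Test species were grown in flooded paddy to the 2-leaf stage: rice, barnyardgrass, umbrella sedge, duck salad.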"}, "[13]": {"tested_on": "duck salad (Heteranthera limosa)", "assay": "Test B flooded paddy test", "conditions": "Flood, 1000 g ai/ha; scale 0 to 100", "in_short": "as §2"}, "rice (Oryza sativa) [14]": {"tested_on": "rice (Oryza sativa)", "assay": "Test B flooded paddy test", "conditions": "Flood, 1000 g ai/ha; scale 0 to 100", "in_short": "as §2"}, "[15]": {"tested_on": "umbrella sedge (Cyperus difformis)", "assay": "Test B flooded paddy test", "conditions": "Flood, 1000 g ai/ha; scale 0 to 100", "in_short": "as §2"}, "[16]": {"tested_on": "barnyardgrass (Echinochloa crus-galli)", "assay": "Test C flooded paddy test", "conditions": "Flood", "procedure": "(§3) At the same time, plants selected from these crop and weed species and also winter barley (Hordeum vulgare), blackgrass (Alopecurus myosuroides), canarygrass (Phalaris minor), chickweed (Stellaria media), downy brome (Bromus tectorum), green foxtail (Setaria viridis), Italian ryegrass (Lolium multiflorum), wheat (Triticum aestivum), wild oat (Avena fatua) and windgrass (Apera spica-venti) were treated with postemergence applications of some of the test chemicals formulated in the same manner. Plants ranged in height from 2 to 18 cm (1- to 4-leaf stage) for postemergence treatments. Plant species in the flooded paddy test consisted of rice (Oryza sativa), umbrella sedge (Cyperus difformis), duck salad (Heteranthera limosa) and barnyardgrass (Echinochloa crus-galli) grown to the 2-leaf stage for testing. Treated plants and controls were maintained in a greenhouse for 12 to 14 days, after which time all species were compared to controls and visually evaluated. Plant response ratings, summarized in Table C, are based on a scale of 0 to 100 where 0 is no effect and 100 is complete control. A dash (-) response means no test result."}, "[17]": {"tested_on": "duck salad (Heteranthera limosa)", "assay": "Test C flooded paddy test", "conditions": "Flood, scale 0 to 100", "procedure": "as §3"}, "rice (Oryza sativa) [18]": {"tested_on": "rice (Oryza sativa)", "assay": "Test C flooded paddy test", "conditions": "Flood, scale 0 to 100", "procedure": "as §3"}, "[19]": {"tested_on": "umbrella sedge (Cyperus difformis)", "assay": "Test C flooded paddy test", "conditions": "Flood, scale 0 to 100", "procedure": "as §3"}, "[20]": {"conditions": "Postemergence, 125 g ai/ha, scale 0 to 100 (0 no effect, 100 complete control)"}, "[21]": {"conditions": "Postemergence, 500 g ai/ha, scale 0 to 100"}, "[22]": {"conditions": "Preemergence, 125 g ai/ha, scale 0 to 100 (0 no effect, 100 complete control)"}, "[23]": {"conditions": "Preemergence, 500 g ai/ha, scale 0 to 100 (0 no effect, 100 complete control)"}, "[24]": {"conditions": "125 g ai/ha, scale 0 to 100 (0 no effect, 100 complete control)"}}}
{"smiles": "CC(C)OC(=O)c1nc(C2CC2)nc(N)c1Br", "note": "[Compound 14]", "values": [{"measurement": "Surinam Grass plant response rating", "setting": "[1]; [20]", "result": 10}, {"measurement": "Plant response rating, Surinam Grass", "setting": "[1]; [21]", "result": 50}, {"measurement": "Plant response rating, Surinam Grass", "setting": "[1]; [22]", "result": 40}, {"measurement": "Surinam Grass plant response rating", "setting": "[1]; [23]", "result": 80}, {"measurement": "Barnyardgrass plant response rating", "setting": "[2]; [20]", "result": 30}, {"measurement": "Plant response rating, Barnyardgrass", "setting": "[2]; [21]", "result": 90}, {"measurement": "Plant response rating, Barnyardgrass", "setting": "[2]; [22]", "result": 10}, {"measurement": "Barnyardgrass plant response rating", "setting": "[2]; [23]", "result": 80}, {"measurement": "Cocklebur plant response rating", "setting": "[3]; [20]", "result": 50}, {"measurement": "Plant response rating, Cocklebur", "setting": "[3]; [21]", "result": 70}, {"measurement": "Plant response rating, Cocklebur", "setting": "[3]; [22]", "result": 60}, {"measurement": "Cocklebur plant response rating", "setting": "[3]; [23]", "result": 80}, {"measurement": "Corn plant response rating", "setting": "corn (Zea mays); [20]", "result": 30}, {"measurement": "Plant response rating, Corn", "setting": "corn (Zea mays); [21]", "result": 70}, {"measurement": "Plant response rating, Corn", "setting": "corn (Zea mays); [22]", "result": 0}, {"measurement": "Corn plant response rating", "setting": "corn (Zea mays); [23]", "result": 70}, {"measurement": "Crabgrass plant response rating", "setting": "[4]; [20]", "result": 10}, {"measurement": "Plant response rating, Crabgrass", "setting": "[4]; [21]", "result": 30}, {"measurement": "Plant response rating, Crabgrass", "setting": "[4]; [22]", "result": 10}, {"measurement": "Crabgrass plant response rating", "setting": "[4]; [23]", "result": 80}, {"measurement": "Foxtail, Giant plant response rating", "setting": "[5]; [20]", "result": 20}, {"measurement": "Plant response rating, Foxtail, Giant", "setting": "[5]; [21]", "result": 50}, {"measurement": "Plant response rating, Foxtail, Giant", "setting": "[5]; [22]", "result": 30}, {"measurement": "Foxtail, Giant plant response rating", "setting": "[5]; [23]", "result": 80}, {"measurement": "Lambsquarters plant response rating", "setting": "[6]; [20]", "result": 100}, {"measurement": "Plant response rating, Lambsquarters", "setting": "[6]; [21]", "result": 100}, {"measurement": "Plant response rating, Lambsquarters", "setting": "[6]; [22]", "result": 90}, {"measurement": "Lambsquarters plant response rating", "setting": "[6]; [23]", "result": 100}, {"measurement": "Morningglory plant response rating", "setting": "[7]; [20]", "result": 100}, {"measurement": "Plant response rating, Morningglory", "setting": "[7]; [21]", "result": 100}, {"measurement": "Plant response rating, Morningglory", "setting": "[7]; [22]", "result": 70}, {"measurement": "Morningglory plant response rating", "setting": "[7]; [23]", "result": 100}, {"measurement": "Pigweed plant response rating", "setting": "[8]; [20]", "result": 80}, {"measurement": "Plant response rating, Pigweed", "setting": "[8]; [21]", "result": 90}, {"measurement": "Plant response rating, Pigweed", "setting": "[8]; [22]", "result": 80}, {"measurement": "Pigweed plant response rating", "setting": "[8]; [23]", "result": 90}, {"measurement": "Velvetleaf plant response rating", "setting": "[9]; [20]", "result": 50}, {"measurement": "Plant response rating, Velvetleaf", "setting": "[9]; [21]", "result": 70}, {"measurement": "Plant response rating, Velvetleaf", "setting": "[9]; [22]", "result": 60}, {"measurement": "Velvetleaf plant response rating", "setting": "[9]; [23]", "result": 80}, {"measurement": "Wheat plant response rating", "setting": "[10]; [20]", "result": 20}, {"measurement": "Plant response rating, Wheat", "setting": "[10]; [21]", "result": 50}, {"measurement": "Plant response rating, Wheat", "setting": "[10]; [22]", "result": 40}, {"measurement": "Wheat plant response rating", "setting": "[10]; [23]", "result": 50}, {"measurement": "Blackgrass plant response rating", "setting": "[11]; [24]", "result": 30}, {"measurement": "Plant response rating, Blackgrass", "setting": "[11]; 500 g ai/ha, scale 0 to 100", "result": 60}, {"measurement": "Oat, Wild plant response rating", "setting": "wild oat (Avena fatua); [24]", "result": 20}, {"measurement": "Plant response rating, Oat, Wild", "setting": "wild oat (Avena fatua); 500 g ai/ha, scale 0 to 100", "result": 70}, {"measurement": "Plant response rating, Barnyardgrass", "setting": "[12]", "result": 80}, {"measurement": "Plant response rating, Ducksalad", "setting": "[13]", "result": 80}, {"measurement": "Plant response rating, Rice", "setting": "rice (Oryza sativa) [14]", "result": 20}, {"measurement": "Plant response rating, Sedge, Umbrella", "setting": "[15]", "result": 50}, {"measurement": "Plant response rating, Barnyardgrass", "setting": "[16]; 62 g ai/ha, scale 0 to 100", "result": 0}, {"measurement": "Plant response rating, Barnyardgrass", "setting": "[16]; 125 g ai/ha, scale 0 to 100", "result": 0}, {"measurement": "Plant response rating, Barnyardgrass", "setting": "[16]; 250 g ai/ha, scale 0 to 100", "result": 0}, {"measurement": "Plant response rating, Barnyardgrass", "setting": "[16]; 500 g ai/ha, scale 0 to 100 (0 no effect, 100 complete control)", "result": 45}, {"measurement": "Plant response rating, Ducksalad", "setting": "[17]; 62 g ai/ha", "result": 0}, {"measurement": "Plant response rating, Ducksalad", "setting": "[17]; 125 g ai/ha", "result": 40}, {"measurement": "Plant response rating, Ducksalad", "setting": "[17]; 250 g ai/ha", "result": 45}, {"measurement": "Plant response rating, Ducksalad", "setting": "[17]; 500 g ai/ha", "result": 55}, {"measurement": "Plant response rating, Rice", "setting": "rice (Oryza sativa) [18]; 62 g ai/ha", "result": 0}, {"measurement": "Plant response rating, Rice", "setting": "rice (Oryza sativa) [18]; 125 g ai/ha", "result": 0}, {"measurement": "Plant response rating, Rice", "setting": "rice (Oryza sativa) [18]; 250 g ai/ha", "result": 0}, {"measurement": "Plant response rating, Rice", "setting": "rice (Oryza sativa) [18]; 500 g ai/ha", "result": 0}, {"measurement": "Plant response rating, Sedge, Umbrella", "setting": "[19]; 62 g ai/ha", "result": 0}, {"measurement": "Plant response rating, Sedge, Umbrella", "setting": "[19]; 125 g ai/ha", "result": 0}, {"measurement": "Plant response rating, Sedge, Umbrella", "setting": "[19]; 250 g ai/ha", "result": 0}, {"measurement": "Plant response rating, Sedge, Umbrella", "setting": "[19]; 500 g ai/ha", "result": 30}]}
